{"source": "patent US6552167B1", "about": "“Polyamide chains of precise length” (Gryphon Therapeutics, Inc., priority 1998, dated 2003)", "key": {"BCL, turnor cell line": {"tested_on": "BCL, turnor cell line", "conditions": "disulfide bond between the cysteines; Terskikh, et al.; cited from earlier work"}, "Solubility in solvents": {"test": "Solubility in solvents", "type": "physicochemical"}, "trypsin": {"tested_on": "trypsin", "test": "Polyamide stability to protease digestion, HPLC analysis (trypsin)", "conditions": "24 hours; 1 mg/ml in 1% ammonium bicarbonate, enzyme:substrate 1:100, 37° C.", "procedure": "(§1) The compounds produced in Examples 8 and 9 were separately dissolved at 1 mg/ml in a 1% ammonium bicarbonate solution. In separate tubes, these solutions were treated with trypsin, chymotrypsin and elastase (enzyme:substrate ratio 1:100, 37° C.). Aliquots (20 μl) were withdrawn at intervals and analyzed by HPLC."}, "chymotrypsin": {"tested_on": "chymotrypsin", "test": "Polyamide stability to protease digestion, HPLC analysis (chymotrypsin)", "conditions": "24 hours; 1 mg/ml in 1% ammonium bicarbonate, enzyme:substrate 1:100, 37° C.", "procedure": "as §1"}, "elastase": {"tested_on": "elastase", "test": "Polyamide stability to protease digestion, HPLC analysis (elastase)", "conditions": "24 hours; 1 mg/ml in 1% ammonium bicarbonate, enzyme:substrate 1:100, 37° C.", "procedure": "as §1"}, "[1]": {"tested_on": "human leukemic UT-7 EPO dependent cell line", "test": "EPO activity in a cell culture assay (UT-7 EPO dependent cell line)", "type": "cell-based", "conditions": "for ED50 (effective dose giving 50% of maximum response): UT-7 EPO dependent cell line", "procedure": "Precise Length EMP-dimers with linkers of different lengths were assayed for EPO activity in a cell culture assay (human leukemic UT-7 EPO dependent cell line). Recombinant EPO and the EMP monomer peptides were included as controls, where the monomer is designated as “mono” in Table 1.\nThe short linker in the precise length EMP-dimer (designated “s” in Table 1) was -(‘PEG’-succ)2-‘PEG’-(succ-‘PEG’)2-. The medium linker (designated “m” in Table 1) was -(‘PEG’-succ)6-‘PEG’-(succ-‘PEG’)6- and the long linker (designated “1” in Table 1) was -(‘PEG’-succ)8-‘PEG’-(succ-‘PEG’)8-.\nTable 1 presents the mean OD's for each peptide sample.\nTable 2 presents the mean OD's for recombinant EPO sample.\nIt was clear, from the results presented above, that the ED50 (effective dose giving 50% of maximum response) values were as presented in Table 3."}}, "note": "Positions of bridges follow the written chain, without caps; N, C: chain ends. 'PEG'‑succ = not defined here"}
{"substance": "ADGACRNPWC (H-ADGACRNPWC-{'PEG'‑succ-'PEG'‑succ-'PEG'‑succ-'PEG'‑succ-'PEG'‑succ-'PEG'‑succ-'PEG'‑succ-'PEG'‑succ-Lys(AoA)-NH2}; disulfide 5-10 (inferred); reading uncertain; also: four copies oximated to fluorescein-labelled Lys2Lys template (tetrameric chemobody)) [phage-derived peptide]", "values": [{"measurement": "binding to the BCL tumor cell line", "setting": "BCL, turnor cell line", "result": "bound"}]}
{"substance": "Fmoc-Ser(But)-(‘PEG’-succ)8-Abu-OH", "values": [{"measurement": "solubility in the water/acetonitrile/TFA HPLC solvent system", "setting": "Solubility in solvents", "result": "perfectly soluble"}]}
{"substance": "H-PQPQPKPQPQPQPQPKPQPKPEPE-NH2 [SEQ ID NO:5]", "values": [{"measurement": "digestion by trypsin", "setting": "trypsin", "result": "digested extensively"}, {"measurement": "digestion by chymotrypsin", "setting": "chymotrypsin", "result": "stable"}, {"measurement": "digestion by elastase", "setting": "elastase", "result": "stable"}]}
{"substance": "Recombinant EPO: recombinant erythropoietin, control", "values": [{"measurement": "mean OD", "setting": "[1]; EPO 1.85 ng/ml", "result": ".878"}, {"measurement": "mean OD", "setting": "[1]; EPO 5.56 ng/ml", "result": ".885"}, {"measurement": "mean OD", "setting": "[1]; EPO 16.7 ng/ml", "result": ".920"}, {"measurement": "mean OD", "setting": "[1]; EPO 50 ng/ml", "result": ".917"}, {"measurement": "mean OD", "setting": "[1]; EPO .00254 ng/ml", "result": ".101"}, {"measurement": "mean OD", "setting": "[1]; EPO .00762 ng/ml", "result": ".108"}, {"measurement": "mean OD", "setting": "[1]; EPO .0229 ng/ml", "result": ".124"}, {"measurement": "mean OD", "setting": "[1]; EPO .0686 ng/ml", "result": ".179"}, {"measurement": "mean OD", "setting": "[1]; EPO .206 ng/ml", "result": ".362"}, {"measurement": "mean OD", "setting": "[1]; EPO .617 ng/ml", "result": ".650"}, {"measurement": "ED50 (effective dose giving 50% of maximum response)", "setting": "[1]", "result": 25, "unit": "pM"}]}
{"substance": "amide-GRLPQCVWTMPGMHCAYLGG-COCH2ON═CH—CO-(‘PEG’-succ)12-‘PEG’-CH═NOCH2CO-GGLYACHMGPMTWVCQPLRG-amide [EMP-m (medium dimer)]", "values": [{"measurement": "ED50 (effective dose giving 50% of maximum response)", "setting": "[1]", "result": 1, "unit": "pM"}, {"measurement": "mean OD", "setting": "[1]; concentration 1 × 10^−1 μM", "result": ".884"}, {"measurement": "mean OD", "setting": "[1]; concentration 1.11 × 10^−2 μM", "result": ".876"}, {"measurement": "mean OD", "setting": "[1]; concentration 1.24 × 10^−3 μM", "result": ".916"}, {"measurement": "mean OD", "setting": "[1]; concentration 1.37 × 10^−4 μM", "result": ".760"}, {"measurement": "mean OD", "setting": "[1]; concentration 1.52 × 10^−5 μM", "result": ".597"}, {"measurement": "mean OD", "setting": "[1]; concentration 1.69 × 10^−6 μM", "result": ".641"}, {"measurement": "mean OD", "setting": "[1]; concentration 1.88 × 10^−7 μM", "result": ".363"}, {"measurement": "mean OD", "setting": "[1]; concentration 2.09 × 10^−8 μM", "result": ".287"}, {"measurement": "mean OD", "setting": "[1]; concentration 2.32 × 10^−9 μM", "result": ".246"}, {"measurement": "mean OD", "setting": "[1]; concentration 3.33 × 10^−2 μM", "result": ".902"}, {"measurement": "mean OD", "setting": "[1]; concentration 3.70 × 10^−3 μM", "result": ".888"}, {"measurement": "mean OD", "setting": "[1]; concentration 4.12 × 10^−4 μM", "result": ".805"}, {"measurement": "mean OD", "setting": "[1]; concentration 4.57 × 10^−5 μM", "result": ".637"}, {"measurement": "mean OD", "setting": "[1]; concentration 5.08 × 10^−6 μM", "result": ".712"}, {"measurement": "mean OD", "setting": "[1]; concentration 5.65 × 10^−7 μM", "result": ".469"}, {"measurement": "mean OD", "setting": "[1]; concentration 6.27 × 10^−8 μM", "result": ".350"}, {"measurement": "mean OD", "setting": "[1]; concentration 6.97 × 10^−9 μM", "result": ".280"}]}
{"substance": "erythropoietin mimetic peptide monomer, GGLYACHMGPMTWVCQPLRG (SEQ ID NO:1), control [EMP monomer, reference compound]", "values": [{"measurement": "ED50 (effective dose giving 50% of maximum response)", "setting": "[1]", "result": "20,000 pM"}, {"measurement": "mean OD", "setting": "[1]; concentration 1 × 10^−1 μM", "result": ".878"}, {"measurement": "mean OD", "setting": "[1]; concentration 1.11 × 10^−2 μM", "result": ".373"}, {"measurement": "mean OD", "setting": "[1]; concentration 1.24 × 10^−3 μM", "result": ".078"}, {"measurement": "mean OD", "setting": "[1]; concentration 1.37 × 10^−4 μM", "result": ".089"}, {"measurement": "mean OD", "setting": "[1]; concentration 3.33 × 10^−2 μM", "result": ".673"}, {"measurement": "mean OD", "setting": "[1]; concentration 3.70 × 10^−3 μM", "result": ".210"}, {"measurement": "mean OD", "setting": "[1]; concentration 4.12 × 10^−4 μM", "result": ".078"}]}
